# According to patent US20050090451A1, “Treatment of cancer with glutamine” (priority 2002, published 2005):
# Read-outs that look alike come from different tables or passages of the source. Square brackets hold non-standard residues; d marks the D form. Peptide text beside a SMILES is read from it. Sar = CNCC(=O)O
# Assays:
# [1] = test system: natural killer (NK) cell cytotoxicity; test: NK cell cytotoxicity, 51-Chromium release assay with YAC-1; type: in vivo, rats; conditions: only at week 1 and week 11; FIG. 31
# Procedure: Rats were treated as in Example 5.
# NK cell cytotoxicity was measured as follows: Aseptically removed spleens were minced using a sterile scalpel, and lymphocytes were teased from the splenic capsule with warm RPMI 1640 (Gibco BRL, Life Technologies Inc., Grand Island, N.Y.). The resulting cells were poured into 50 ml conical tubes, which were filled with ammonium chloride (0.83%) (Sigma Chemical Co., St. Louis, Mo.) to lyse the red cells. The cell solution was then centrifuged for 10 minutes at 1000 rpm. The supernatant was decanted, and the cell pellet was vortexed with RPMI (no GLN) and centrifuged again. Next, the cells were resuspended in approximately 10 ml of RPMI containing 10% fetal bovine serum […] (Gibco BRL, Life Technologies Inc., Grand Island, N.Y.) supplemented with 1% GLN. This cell suspension was placed in Petri dishes and incubated in 6% CO2 at 37° C. for 30 minutes. After incubation to assure adherence of the monocytes, the nonadherent lymphocytes were counted (1:1 with crystal violet stain). Approximately 7×10^6 total cells from each spleen were incubated for 3 days in RPMI containing 10% FBS and recombinant human IL-2 (500 U/ml). […] The calculation of the NK activity is expressed as the following equation: [formula]
# [2] = test system: gut glutathione (GSH) production; test: Gut GLN and GSH fluxes in DMBA-treated rats; type: in vivo, Sprague-Dawley rats; conditions: 20 mg DMBA gavage; 1 week after DMBA; FIG. 15
# Procedure: Methods: 80 Sprague-Dawley rats were randomized to 4 groups (n=20/group): DMBA+GLN, DMBA+FA, OIL+GLN, OIL+FA. Rats (age 50 days) were gavaged with a 1-time dose of 20 mg DMBA or oil. Rats were gavaged with AES-14 (1 gm GLN/kg/day) or an isonitrogenous amount of Freamine (FA) from 1 week before till sacrifice at 1 week after DMBA (greatest effect on gut GSH extraction). Arterial and portal blood was taken for GLN and GSH levels, and blood flow measured using 14-C-PAH. Gut GLN and GSH fluxes (uptake or production) were calculated.
# [3] = Portal blood and gut mucosa GSH after DMBA; type: in vivo, Sprague-Dawley rats; conditions: 100 mg/kg DMBA, one week after
# [4] = test system: GSH transport in jejunal basolateral membrane vesicles (BLMV); test: [3H]Glutathione uptake in jejunal basolateral membrane vesicles after DMBA; type: in vivo, Sprague-Dawley rats; conditions: 100 mg/kg DMBA single dose; one week after; FIG. 26
# Procedure: Methods: The transport of GSH in the jejunal basolateral membrane vesicles (BLMV) was investigated in Sprague-Dawley rats treated with a single dose of 100 mg/kg DMBA (n=15) or sesame oil (n=15) as controls. The animals were pair-fed pre-defined chow and were given water ad libitum. All rats were sacrificed one week after the DMBA administration. Jejunal basolateral membrane vesicles (BLMV) were prepared using Percoll Colloidal PVP coated silica differential centrifugation technique. All steps were carried out at 2-4° C. Jejunal mucosal scraping was homogenized in isolation buffer containing 180 mM sucrose/2 mM Tris being adjusted to pH 7.40 by 2 mM Hepes using a Polytron homogenizer (Brinkman, Rexdale, ON), at setting 2 to 6 then 6 to 2, over 55 seconds. The homogenate was centrifuges for 10 minutes at 1000 g. The supernatant was filtered through four layers gauze and recollected. The supernatant containing basolateral membrane material then was centrifuged 15 minutes at 22,000 g. […] Protein concentration was determined by the Bio-Rad protein assay (Bio-Rad Laboratories, Hercules, Calif.).
# The uptake of [^3H]Glutathione was measured by a rapid mixing/filtration technique. […] All vials were counted with liquid scintillation system LS 1801 (Beckman coulter, Fullerton, Calif.).
# Caco-2 cell monolayers [5] = test system: Caco-2 cell monolayers
# Procedure: (§1) Compound cellular uptake into and permeability across Caco-2 monolayers was measured.
# (§2) Monolayer integrity was monitored using ^14C-mannitol permeability. Mannitol uptake was also studied.
# (§3) Uptake and permeability studies were conducted using Transwelle inserts in the apical to basolateral direction, at intervals of 10 sec., 60 sec., and 5 min.
# (§4) ^14C-mannitol and ^3H-drugs were quantified by liquid scintillation counting. For uptake studies, at designated time points (10 sec, 60 sec, and 5 min), the donor solution was aspirated off. The cell monolayer was washed twice with ice cold HBSS to remove any residual binding and then dissolved in 1 ml of the cell solubilizing agent, Solvable®. The cell lysate (0.5 ml) was added to 5 ml scintillation cocktail (Econosafe®) and counted on liquid scintillation counter (Beckman LS5801, Columbia, Md.). For permeability studies, 0.5 ml of received solution was added to 5 ml scintillation cocktail (Econosafe®) and counted on liquid scintillation counter.
# (§5) Permeability is an absolute measure (units of cm/Sec or velocity) and can be determined even though the absolute drug concentrations were not known.
# Caco-2 cell monolayers [6] = test system: Caco-2 cell monolayers; remark: listed apart in the source
# Procedure: (§6) Uptake and permeability of each compound was measured in the apical-to-basolateral direction, with and without vehicle.
# (§7) Each compound was tritiated. ^14C-mannitol was used as an evaluation of monolayer/cell integrity (i.e. as a low uptake/permeability marker).
# (§8) Uptake and Permeability Assessments. Compound cellular uptake into and permeability across Caco-2 monolayers was measured.
# (§9) HBSS was used when no pharmaceutical vehicle was present for each of the four compounds. […] Monolayer integrity was monitored using ^14C-mannitol permeability. Mannitol uptake was also studied.
# as §3, §4
# [7] = The Merck Index, cited from earlier work
# tumor = conditions: cited from earlier work
# [8] = test system: human gastrointestinal epithelial cell line (CaCo); test: Cellular glutamine uptake in CaCo cells (HPLC); type: cell-based
# Procedure: Both samples were allowed to stand for 1 day at room temperature. The supernatant was decanted from the residue and used for the cellular uptake determination.
# On Day 1, cells from a human gastrointestinal epithelial cell line (CaCo) were plated at a density of 0.5×10^6 cells per well in a 6-well tissue culture dish.
# At time points 0, 10, 20, 40, and 60 seconds the test material was aspirated and the cells washed three times (3×) with chilled (4° C.) phosphate buffered saline (PBS), followed by the addition of 1.0 ml of perchloric acid. Cells were harvested by scraping, then aspiration by pipet into a 1.7 ml tube.
# The harvested cells were sonicated for 10 seconds, and 500 μl of sonicated cells were transferred into a 1.7 ml tube. The perchloric acid was neutralized by the addition of 130 μl of 2M KHCO3, and the resulting mixture was frozen overnight at −80° C.
# Upon thawing, the sample was centrifuged for 10 minutes at 14,000 rpm and the supernatants were transferred to new 1.7 ml tubes and frozen at −80° C. The resulting clarified samples were thawed and diluted 1:3 with deionized water. […] After incubation for two minutes at room temperature, a 20 μl sample was injected on a Hypersil® C18 Elite 5 μm HPLC column using 70:30 acetonitrile:water as the mobile phase. Glutamine levels, measured as μg/ml, were detected at 340 nm.
# in vitro = conditions: human, Caco-2, Mannitol Permeability with Vehicle
# Procedure: as §1, §2, §3, §4, §5
# Caco-2 cell monolayers [9] = test: Relative cellular uptake into Caco-2 monolayers, vehicle vs non-vehicle; conditions: saturated solutions; AES-14 vehicle vs HBSS; FIGS. 3-6
# Procedure: as §6, §7, §8, §9, §3, §4
# Caco-2 cell monolayers [10] = test: Caco-2 permeability, apical-to-basolateral; conditions: Aesgen-14 vehicle vs no vehicle; saturated solutions; 5 minute period; FIGS. 8-11
# Procedure: as §1, §2, §3, §4, §5
smiles,measurement,setting,value
"Cc1c2ccccc2c(C)c2c1ccc1ccccc12 [DMBA, 7,12-dimethylbenz[a]anthracene]",NK cell activity vs non-DMBA controls,[1],lower
same,effect on gut GLN metabolism,[2],not affecting
same,effect on normal gut GSH production (negative flux),[2],abrogated
same,decrease of portal blood GSH concentration,[3]; FIG. 27,34%
same,increase of gut mucosa GSH,[3]; FIG. 28,two-fold
same,decrease of the rate of total GSH uptake by BLMV vs control group,[4],42%
NC(=O)C[C@H](N)C(=O)O [L-asparagine],effect of vehicle on permeability,Caco-2 cell monolayers [5],no effect
same,enhancement of cellular drug uptake by vehicle (relative uptake vehicle vs non-vehicle),Caco-2 cell monolayers [6],about four-fold
NC(=O)CC[C@H](N)C(=O)O [L-glutamine],solubility in water,[7]; 0° C.,18 mg/mL
same,solubility in water,[7]; 18° C.,26 mg/mL
same,solubility in water,[7]; 30° C.,48 mg/mL
same,effect of vehicle on permeability,Caco-2 cell monolayers [5],no effect
same,enhancement of cellular uptake by vehicle,Caco-2 cell monolayers [6],enhanced
same,tumor volume loss when glutamine was added to the diet,"tumor; rats receiving methotrexate, Klimberg 1992",nearly doubled
same,decrease of tumor growth,"tumor; rats, glutamine by gavage or as a food additive, within three weeks, Fahr 1994",40%
same,mean cellular glutamine uptake,"[8]; normal cells, incubation time 0 seconds",3.53 µg/mL
same,mean cellular glutamine uptake,"[8]; normal cells, incubation time 10 seconds",10.30 µg/mL
same,mean cellular glutamine uptake,"[8]; normal cells, incubation time 20 seconds",2.48 µg/mL
same,mean cellular glutamine uptake,"[8]; normal cells, incubation time 40 seconds",3.23 µg/mL
same,mean cellular glutamine uptake,"[8]; normal cells, incubation time 60 seconds",4.85 µg/mL
same,mean cellular glutamine uptake,"[8]; starved cells (L-glutamine deficient medium), incubation time 0 seconds",1.33 µg/mL
same,mean cellular glutamine uptake,"[8]; starved cells, incubation time 10 seconds",1.43 µg/mL
same,mean cellular glutamine uptake,"[8]; starved cells, incubation time 20 seconds",1.49 µg/mL
same,mean cellular glutamine uptake,"[8]; starved cells, incubation time 40 seconds",2.23 µg/mL
same,mean cellular glutamine uptake,"[8]; starved cells, incubation time 60 seconds",49.96 µg/mL
"OC[C@@H](O)[C@@H](O)[C@H](O)[C@H](O)CO [Mannitol, mannitol]",Mannitol Permeability with Vehicle,Caco-2 cell monolayers [5],Below LOQ
same,Mannitol Permeability without Vehicle,Caco-2 cell monolayers [5],Below LOQ
same,effect of vehicle on mannitol permeability,Caco-2 cell monolayers [5],no effect
same,effect of vehicle on mannitol relative uptake,Caco-2 cell monolayers [6],no effect
same,Papp A→B at 5 min,in vitro,0.916 ×10⁻⁶ cm/s
Nc1nc2c(ncn2COCCO)c(=O)[nH]1 [acyclovir],effect of vehicle on permeability,Caco-2 cell monolayers [5],no effect
CN(CC(=O)O)C(=O)CN [glycylsarcosine] (H-Gly-[Sar]-OH),enhancement of cellular drug uptake by vehicle (relative uptake vehicle vs non-vehicle),Caco-2 cell monolayers [9],about four-fold
same,effect of vehicle on permeability,Caco-2 cell monolayers [10],no effect
